Experimental data: patent US20180147206A1, “ACTIVATION OF NEURONAL STORE-OPERATED CALCIUM ENTRY PATHWAY FOR THE TREATMENT OF ALZHEIMER'S DISEASE” (The Board of Regents of the University of Texas System, priority 2015, published 2018)

What was measured:
TRPC6 = molecular target: T1, TRPC6 (Homo sapiens, UniProt Q9Y210); test: Fura-2 Ca2+ imaging in TRPC6-transfected HEK293 cells; format: cell-based; conditions: for potentiation of OAG-induced responses: preincubation 1 μM, 100 μM OAG
T1 construct: expressed in transfected cells; host or cells: HEK293
T1 sequence (Q9Y210 1-931): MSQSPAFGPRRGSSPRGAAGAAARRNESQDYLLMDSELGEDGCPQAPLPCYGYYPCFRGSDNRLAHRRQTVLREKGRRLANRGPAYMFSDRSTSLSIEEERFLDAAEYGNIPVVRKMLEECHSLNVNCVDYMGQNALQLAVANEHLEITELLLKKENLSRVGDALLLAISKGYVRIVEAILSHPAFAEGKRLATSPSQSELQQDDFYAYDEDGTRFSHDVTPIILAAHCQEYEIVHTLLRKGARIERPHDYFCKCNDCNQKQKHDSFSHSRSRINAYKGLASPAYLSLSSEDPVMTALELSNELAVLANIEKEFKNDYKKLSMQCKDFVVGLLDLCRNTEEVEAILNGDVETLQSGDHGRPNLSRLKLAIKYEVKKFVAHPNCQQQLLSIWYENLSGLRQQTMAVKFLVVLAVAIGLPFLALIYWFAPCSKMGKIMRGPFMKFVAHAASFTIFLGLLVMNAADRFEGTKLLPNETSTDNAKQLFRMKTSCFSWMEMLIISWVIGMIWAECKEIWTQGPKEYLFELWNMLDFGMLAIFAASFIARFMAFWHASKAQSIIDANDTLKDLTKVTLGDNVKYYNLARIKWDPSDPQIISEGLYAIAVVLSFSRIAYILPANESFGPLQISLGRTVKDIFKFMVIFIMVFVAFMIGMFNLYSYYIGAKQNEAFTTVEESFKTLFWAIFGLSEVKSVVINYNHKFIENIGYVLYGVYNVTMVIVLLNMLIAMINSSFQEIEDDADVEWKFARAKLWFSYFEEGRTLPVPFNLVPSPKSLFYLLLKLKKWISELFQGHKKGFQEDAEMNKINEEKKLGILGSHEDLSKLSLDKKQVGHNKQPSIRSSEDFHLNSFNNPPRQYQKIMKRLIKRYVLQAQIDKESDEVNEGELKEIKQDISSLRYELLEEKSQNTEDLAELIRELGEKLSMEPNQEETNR

[1] = test system: other TRPCs (TRPC1-7), Orais (Orai1-3), or combination of TRPC6 and Orai2; test: Fura-2 Ca2+ imaging in HEK293 cells transfected with other TRPCs, Orais or TRPC6 plus Orai2; format: cell-based; conditions: 1 μM (data not shown)
Method: To confirm the target for Hyp and NSN compounds, the inventors overexpressed TRPC6 in HEK293 cells and performed a series of Fura-2 Ca^2+ imaging experiments. […] In additional experiments, the inventors evaluated effects of 1 μM NSN compound in experiments with HEK293 cells transfected with other TRPCs (TRPC1-7), Orais (Orail-3), or combination of TRPC6 and Orai2. […] From these experiments, the inventors concluded that Hyp acts as direct activator of TRPC6 channels, but the actions of NSN compound are more complex. In further experiments, the inventors measured SOC in conditions of store depletion. To achieve this, HEK239 cells were preincubated in Ca^2+-free media containing 1 μM Tg. In these experiments, the inventors observed endogenous SOC response in EGFP-transfected cells, which was further enhanced in TRPC6-transfected cells. […] TRPC6 channels are known to be activated by DAG (Estacion et al., 2004). In spine nSOC measurements, addition of 100 μM DHPG was required to generate robust Ca^2+ responses. Thus, in the next series of experiments, the inventors evaluated effects of OAG, a synthetic and stable analog of DAG.

[2] = In vivo pharmacokinetics (plasma and brain); parameters: species or system mouse; conditions: i.p. 10 mg/kg, female CD-1 mice
Method: FIGS. 12A-D. NSN21778 in vitro metabolism stability, in vivo plasma pharmacokinetics, and side effect on body weight (Related to FIGS. 7A-G). (FIG. 12A) The metabolic stability of NSN21778 was evaluated in vitro after incubation with commercial liver S9 fractions in the presence of phase I (NADPH regenerating system) cofactors. Compound levels were determined by LC-MS/MS. Additionally, the stability of NSN21778 in the presence of commercial CD-1 mouse plasma was measured. (FIG. 12B) NSN21778 was dosed i.p. at 10 mg/kg to female CD-1 mice. Levels of NSN21778 in plasma and brain were evaluated by LC-MS/MS. (FIG. 12C) WTGFP, PS1KIGFP and APPKIGFP mice body weight after i.p. administrated with control solution or 10 mg/kg NSN21778 for 10 weeks. Data presented as mean±SE (n=5 mice). […]
In vivo pharmacokinetics. […] The supernatant was then analyzed by LC-MS/MS. […] The limit of quantitation (LOQ) was defined as the lowest concentration at which back calculation yielded a concentration within 20% of the theoretical value and above the LOD signal. […] Because the animals were not perfused prior to tissue isolation, to determine the final brain concentration of NSN21778, the amount of compound in brain due to brain vasculature was first subtracted using the calculated plasma concentrations of NSN21778 and a value of 30 μl of blood/g of brain tissue (Kwon, 2001).

**Q.** For `CC(=O)Nc1ccc(CCNc2ncnc3ccc(N)cc23)cc1` [NSN21778, N-{4-[2-(6-Amino-quinazolin-4-ylamino)-ethyl]-phenyl}-acetamide], which “SOC in conditions of store depletion” value (TRPC6; GFP or TRPC6 HEK293 cells preincubated in Ca2+-free media with 1 μM Tg (data not shown)) is on record?
**A.** no additional effect

**Q.** And the “Ca2+ influx” value (TRPC6; TRPC6-transfected HEK293 cells, 1 μM, 2 mM Ca2+)?
**A.** did not trigger Ca^2+ influx

**Q.** And the “potentiation of OAG-induced responses” value (TRPC6; TRPC6-transfected cells, stores partially depleted (0.1 mM Ca2+))?
**A.** significant potentiation

**Q.** And the “potentiation of OAG-induced responses” value (TRPC6; control GFP cells, stores partially depleted)?
**A.** not in control GFP cells

**Q.** What about the “Ca2+ influx” value [1] of the same compound?
**A.** failed to induce Ca^2+ influx

**Q.** And the brain penetration [2]?
**A.** poor

**Q.** What about the levels in plasma [2] of the same compound?
**A.** modest levels
